Test results as given in patent publication US20080287429A1 (Z & Z Medical Holdings, Inc., priority 2007, published 2008).
Like-named read-outs stand apart in the source and are kept apart here.

Tests used:
[1] = 40 mg/day rosuvastatin, cited from earlier work
[2] = test system: sandwich culture human hepatocytes; conditions: cited from earlier work
[3] = test system: sandwich culture rat hepatocytes; conditions: cited from earlier work
[4] = fed to C57BL/6 LDL r-KO knockout mice, relative to mice not provided HDCA; cited from earlier work
[5] = wild type mice, same amount of dietary HDCA; cited from earlier work
[6] = test system: hepatocellular uptake of bile acids; conditions: cited from earlier work
[7] = in vivo; cited from earlier work
[8] = test system: sandwich culture rat hepatocyte; conditions: cited from earlier work
[9] = test system: atherosclerotic plaque in pig artery; assay: Solubilization of atherosclerotic plaque material in ex vivo samples of pig artery; conditions: 50 mg/mL DCA bath, after 5 hours
Procedure: Early in the treatment, on removal of the sample from the bath a clear, viscous, column of fluid extended from the sample. This column of fluid continued to be apparent when samples were evaluated up to about 4 or 5 hours, after which the fluid column was no longer noted. Without wishing to be held to any one theory of operation, it was concluded that the clear fluid comprised components of the plaque. […] The sample was continuously exposed for a period of 8 days.

[10] = test system: bile acid uptake by hepatocyte receptors; conditions: 1 mmol/kg, cited from earlier work

For `CC(C)c1nc(N(C)S(C)(=O)=O)nc(-c2ccc(F)cc2)c1/C=C/[C@@H](O)C[C@@H](O)CC(=O)O` [rosuvastatin], the “reduction with respect to normalized total atheroma volume” value ([1]; after 2 years, SD=11.1) is listed as 6.7%, the “plaque volume reduced, most diseased segments of vessels examined” value ([1]; after 2 years, SD=13.7) is listed as 8.5% and the “modulating LDL, HDL, and triglyceride levels” value [1] is listed as “particularly effective”.

For `O=C1Nc2ccc(Cl)cc2[C@@](C#CC2CC2)(C(F)(F)F)O1` [efavirenz], the bile acid transport ([2]; 32 μM) is given as “inhibit” and the bile acid transport ([3]; 32 μM) is given as “inhibit”.

In the case of `C[C@H](CCC(=O)O)[C@H]1CC[C@H]2[C@@H]3C[C@H](O)[C@@H]4C[C@H](O)CC[C@]4(C)[C@H]3CC[C@]12C` [HDCA, hyodeoxycholic acid], the “rate of formation of atherosclerotic plaque” value [4] is given as “reduced rate of formation” and the plasma levels [5] is given as “up to 50 μM”.

For `CC(=O)N1CCN(c2ccc(OCC3COC(Cn4ccnc4)(c4ccc(Cl)cc4Cl)O3)cc2)CC1` (stereo not drawn) [ketoconazole], the “serum levels of cholic acid, taurocholic acid, and chenodeoxycholic acid” value ([6]; 25 mg/kg) is given as “increase”, the “serum levels of cholic, taurocholic, chenodeoxycholic, glycocholic, glycochenodeoxycholic, glycodeoxycholic, deoxycholic and taurochenodeoxycholic acid” value ([6]; 50 mg/kg) is given as “increase” and the “hepatocellular uptake of bile acids” value ([6]; dose related, relatively specific) is given as “strongly inhibiting”. For the same compound, the side effect [7] was “hepatotoxicity”.

For `COc1ccccc1Oc1c(NS(=O)(=O)c2ccc(C(C)(C)C)cc2)nc(-c2ncccn2)nc1OCCO` [bosentan], the “hepatic uptake and excretion of bile acids from the bile pole of the hepatocyte” value ([8]; 100 μM) is listed as “inhibit”.

In the case of `CC(C)c1nc(CN(C)C(=O)N[C@H](C(=O)N[C@@H](Cc2ccccc2)C[C@H](O)[C@H](Cc2ccccc2)NC(=O)OCc2cncs2)C(C)C)cs1` [ritonavir], the bile acid transport ([2]; 28 μM) is given as “inhibit” and the bile acid transport ([3]; 28 μM) is given as “inhibit”.

With `C[C@H](CCC(=O)O)[C@H]1CC[C@H]2[C@@H]3CC[C@@H]4C[C@H](O)CC[C@]4(C)[C@H]3C[C@H](O)[C@]12C` [DCA, deoxycholic acid] the “plaque volume decreased (macroscopic assessment)” value [9] was “about 70%”.

For `ClC=C(Cl)Cl` [trichloroethylene], the serum bile acids [10] is listed as “serum accumulation of bile acids” and the “bile acid uptake by hepatocyte receptors” value ([10]; rather than actual cell damage) is listed as “reversible physiological interference”.

In the case of `Cc1c(C)c2c(c(C)c1O)CCC(C)(COc1ccc(CC3SC(=O)NC3=O)cc1)O2` (stereo not drawn) [troglitazone], the “hepatic uptake and excretion of bile acids from the bile pole of the hepatocyte” value ([8]; 10 μM) is listed as “inhibit”.
